Results as given in patent US10457707B2, “Substituted urea depsipeptide analogs as activators of the CLPP endopeptidase” (priority 2015, dated 2019).
In brackets after ≈: the same amount, converted by molar mass. Read-outs that look alike come from different tables or passages of the source. *1 amine or outer side, *2 acyl side, *3 side chain or, on linkers, in order; H or OH if unused. Where a SMILES comes first, the peptide text is derived from it. Bridges are numbered along the chain shown (N, C = ends). [ ]: non-standard residue; d: D form. The star is where a group is joined. Phe(3,5-F2) = N[C@@H](Cc1cc(F)cc(F)c1)C(=O)O; NH(1-Me-indolin-5-yl) = CN1CCc2cc(N*)ccc21; NMepT = CN[C@H](C(=O)O)[C@@H](C)OP(=O)(O)O; NH(4-OCF3-phenyl) = FC(F)(F)Oc1ccc(N*)cc1; Morpholine(3S-CO) = O=C(O)[C@@H]1COCCN1; Pro(4S-Me) = C[C@@H]1CN[C@H](C(=O)O)C1; NH(4-Cl-2-F-phenyl) = Fc1cc(Cl)ccc1N*; Pro(4R-Me) = C[C@H]1CN[C@H](C(=O)O)C1; Hyp = O=C(O)[C@@H]1C[C@@H](O)CN1; NH(4-Et-phenyl) = CCc1ccc(N*)cc1; NMeT = CN[C@H](C(=O)O)[C@@H](C)O; Heptenoyl(2E) = CCCC/C=C/C(=O)*; NH(4-Me-phenyl) = Cc1ccc(N*)cc1; aThr = C[C@H](O)[C@H](N)C(=O)O; Pip = O=C(O)[C@@H]1CCCCN1; CO = O=C([*:1])[*:2]

How the values were obtained:
Type in all cases: cell-based
[1] = Cytotoxicity assay (CellTiter-Glo cell viability, 72 hours); settings: African green monkey
Summary of the method: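 Viability measured by CellTiter-Glo luminescence after 72-hour compound exposure (serial dilutions, DMSO control) of Vero monolayers seeded at 5000 cells/well in 10% FBS DMEM. IC50 values are the range of two biologically independent experiments, each run in duplicate.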

[2] = system: Staphylococcus aureus, USA 300 wherein ClpP is inactivated; assay: Minimal inhibitory concentration assay
Summary of the method: (§1)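 Visual read-out; MIC is the lowest drug concentration with no bacterial growth after overnight aerobic incubation at 37 °C. Compound was tested in two-fold dilutions starting at 200 μM final, with an inoculum of approximately 10^5 cfu/mL, following CLSI microdilution guidance.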

[3] = system: Staphylococcus aureus, USA 300; assay: Minimal inhibitory concentration assay; settings: USA300, read-out: Minimal Inhibitory Concentrations S. aureus USA 300
Summary of the method: as §1

[4] = system: Streptococcus pneumoniae, R6; assay: Minimal inhibitory concentration assay; settings: read-out: Minimal Inhibitory Concentrations S. pneumoniae R6
Summary of the method: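 Microbroth dilution with two-fold serial compound dilutions in broth, incubated aerobically overnight at 37° C. MIC taken as the lowest concentration preventing bacterial growth.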

[5] = system: Enterococcus faecalis, ATCC 33186; assay: Minimal inhibitory concentration assay (microbroth dilution)
Summary of the method: as §1

[6] = Vero cells, 72 hours, growth inhibition, read-out: Cytotoxicity IC50
[7] = Enterococcus faecalis, ATCC33186; read-out: Minimal Inhibitory Concentrations E. faecalis ATCC 33186

In the case of `CCc1ccc(NC(=O)N[C@@H](Cc2cc(F)cc(F)c2)C(=O)N[C@@H]2C(=O)N3CCC[C@H]3C(=O)N(C)[C@@H]([C@@H](C)O)C(=O)N[C@@H](C)C(=O)N3C[C@@H](C)C[C@H]3C(=O)O[C@H]2C)cc1` [Compound 37, (S)-3-(3,5-difluorophenyl)-2-(3-(4-ethylphenyl)ureido)-N-((2S,6S,9S,11aS,17S,18S,20aS)-9-((R)-1-hydroxyethyl)-2,6,10,18-tetramethyl-5,8,11,16,20-pentaoxohexadecahydro-1H,5H,16H-dipyrrolo[2,1-c:2′,1′-l][1]oxa[4,7,10,13]tetraazacyclohexadecin-17-yl)propanamide] ({NH(4-Et-phenyl)-CO}-[Phe(3,5-F2)][aThr]P[NMeT]A[Pro(4S-Me)]; ester 2-C), the IC50 at 72 h [1] is reported as 33.8 ± 1.6 µM, the “Minimal Inhibitory Concentrations S. aureus USA 300 ΔClpP” value [2] is reported as 100 µM and the MIC [3] is reported as 0.1 µM (≈ 0.0826 µg/mL). It also gave an MIC [4] of 0.024 µM (≈ 0.0198 µg/mL).
With `C[C@H]1C[C@H]2C(=O)O[C@@H](C)[C@H](NC(=O)[C@H](Cc3cc(F)cc(F)c3)NC(=O)Nc3ccc(OC(F)(F)F)cc3)C(=O)N3CCC[C@H]3C(=O)N(C)[C@@H]([C@@H](C)O)C(=O)N[C@@H](C)C(=O)N2C1` [Compound 36, (S)-3-(3,5-difluorophenyl)-N-((2S,6S,9S,11aS,17S,18S,20aS)-9-((R)-1-hydroxyethyl)-2,6,10,18-tetramethyl-5,8,11,16,20-pentaoxohexadecahydro-1H,5H,16H-dipyrrolo[2,1-c:2′,1′-l][1]oxa[4,7,10,13]tetraazacyclohexadecin-17-yl)-2-(3-(4-(trifluoromethoxy)phenyl)ureido)propanamide] ({NH(4-OCF3-phenyl)-CO}-[Phe(3,5-F2)][aThr]P[NMeT]A[Pro(4S-Me)]; ester 2-C) the IC50 at 72 h [1] was 25.4 ± 1.8 µM, the “Minimal Inhibitory Concentrations S. aureus USA 300 ΔClpP” value [2] was 50 µM and the MIC [3] was 0.1 µM (≈ 0.0882 µg/mL). The MIC [4] was 0.024 µM (≈ 0.0212 µg/mL).
In the case of `CCc1ccc(NC(=O)N[C@@H](Cc2cc(F)cc(F)c2)C(=O)N[C@@H]2C(=O)N3CCC[C@H]3C(=O)N(C)[C@@H]([C@@H](C)O)C(=O)N[C@@H](C)C(=O)N3C[C@H](C)C[C@H]3C(=O)O[C@H]2C)cc1` [Compound 42, (S)-3-(3,5-difluorophenyl)-2-(3-(4-ethylphenyl)ureido)-N-((2R,6S,9S,11aS,17S,18S,20aS)-9-((R)-1-hydroxyethyl)-2,6,10,18-tetramethyl-5,8,11,16,20-pentaoxohexadecahydro-1H,5H,16H-dipyrrolo[2,1-c:2′,1′-l][1]oxa[4,7,10,13]tetraazacyclohexadecin-17-yl)propanamide] ({NH(4-Et-phenyl)-CO}-[Phe(3,5-F2)][aThr]P[NMeT]A[Pro(4R-Me)]; ester 2-C), the IC50 at 72 h [1] is reported as 24.9 ± 2.6 µM, the “Minimal Inhibitory Concentrations S. aureus USA 300 ΔClpP” value [2] is reported as 100 µM and the MIC [3] is reported as 0.1 µM (≈ 0.0826 µg/mL). For the same compound, the MIC [4] was 0.01 µM (≈ 0.00826 µg/mL).
In the case of `Cc1ccc(NC(=O)N[C@@H](Cc2cc(F)cc(F)c2)C(=O)N[C@@H]2C(=O)N3CCC[C@H]3C(=O)N(C)[C@@H]([C@@H](C)OP(=O)(O)O)C(=O)N[C@@H](C)C(=O)N3C[C@@H](C)C[C@H]3C(=O)O[C@H]2C)cc1` [Compound 188, (R)-1-((2S,6S,9S,11aS,17S,18S,20aS)-17-((S)-3-(3,5-difluorophenyl)-2-(3-(p-tolyl)ureido)propanamido)-2,6,10,18-tetramethyl-5,8,11,16,20-pentaoxohexadecahydro-1H,5H,16H-dipyrrolo[2,1-c:2′,1′-l][1]oxa[4,7,10,13]tetraazacyclohexadecin-9-yl)ethyl dihydrogen phosphate] ({NH(4-Me-phenyl)-CO}-[Phe(3,5-F2)][aThr]P[NMepT]A[Pro(4S-Me)]; ester 2-C), the IC50 at 72 h [1, 6] is reported as over 100 µM, the “Minimal Inhibitory Concentrations S. aureus USA 300 ΔClpP” value [2] is reported as over 200 µM and the MIC [3] is reported as 50 µM. It also gave an MIC [4] of 13 µM.
Compound `C[C@@H]1C[C@H]2C(=O)OC[C@H](NC(=O)[C@H](Cc3cc(F)cc(F)c3)NC(=O)Nc3ccc4c(c3)OCO4)C(=O)N3CCC[C@H]3C(=O)N3CCCC[C@H]3C(=O)N[C@@H](C)C(=O)N2C1` [Compound 195, (S)-2-(3-(benzo[d][1,3]dioxol-5-yl)ureido)-3-(3,5-difluorophenyl)-N-((2R,6S,8aS,14aS,20S,23aS)-2,6-dimethyl-5,8,14,19,23-pentaoxooctadecahydro-1H,5H,14H,19H-pyrido[2,1-i]dipyrrolo[2,1-c:2′,1′-l][1]oxa[4,7,10,13]tetraazacyclohexadecin-20-yl)propanamide] has an IC50 at 72 h [1] of 84.1 ± 8.3 µM and an MIC [4] of 0.1 µM (≈ 0.0824 µg/mL).
For `CCCC/C=C/C(=O)N[C@@H](Cc1cc(F)cc(F)c1)C(=O)N[C@@H]1C(=O)N2CCC[C@H]2C(=O)N(C)[C@@H]([C@@H](C)O)C(=O)N[C@@H](C)C(=O)N2C[C@H](C)C[C@H]2C(=O)O[C@H]1C` [Compound 308, (E)-N—((S)-3-(3,5-difluorophenyl)-1-(((2R,6S,9S,11aS,17S,18S,20aS)-9-((R)-1-hydroxyethyl)-2,6,10,18-tetramethyl-5,8,11,16,20-pentaoxohexadecahydro-1H,5H,16H-dipyrrolo[2,1-c:2′,1′-l][1]oxa[4,7,10,13]tetraazacyclohexadecin-17-yl)amino)-1-oxopropan-2-yl)hept-2-enamide] ({Heptenoyl(2E)}-[Phe(3,5-F2)][aThr]P[NMeT]A[Pro(4R-Me)]; ester 2-C), the IC50 at 72 h [1] was 38.6 ± 1.1 µM, the MIC [5, 7] was 0.039 µM (≈ 0.0308 µg/mL) and the “Minimal Inhibitory Concentrations S. aureus USA 300 ΔClpP” value [2] was over 20 µM. The MIC [3] was 0.039 µM (≈ 0.0308 µg/mL).
With `CCCC/C=C/C(=O)N[C@@H](Cc1cc(F)cc(F)c1)C(=O)N[C@@H]1C(=O)N2C[C@H](O)C[C@H]2C(=O)N2CCOC[C@H]2C(=O)N[C@@H](C)C(=O)N2C[C@H](C)C[C@H]2C(=O)O[C@H]1C` [Compound 309, (E)-N—((S)-3-(3,5-difluorophenyl)-1-(((6aS,8R,12S,13S,15aS,17R,21S,23aS)-8-hydroxy-13,17,21-trimethyl-6,11,15,20,23-pentaoxooctadecahydro-6H,11H,15H-[1,4]oxazino[3,4-i]dipyrrolo[2,1-c:2′,1′-l][1]oxa[4,7,10,13]tetraazacyclohexadecin-12-yl)amino)-1-oxopropan-2-yl)hept-2-enamide] ({Heptenoyl(2E)}-[Phe(3,5-F2)][aThr][Hyp][Morpholine(3S-CO)]A[Pro(4R-Me)]; ester 2-C) the IC50 at 72 h [1] was over 100 µM, the MIC [5, 7] was 0.039 µM (≈ 0.0313 µg/mL) and the “Minimal Inhibitory Concentrations S. aureus USA 300 ΔClpP” value [2] was over 20 µM. The MIC [3] was 0.625 µM (≈ 0.502 µg/mL).
With `C[C@@H]1C[C@H]2C(=O)O[C@@H](C)[C@H](NC(=O)[C@H](Cc3cc(F)cc(F)c3)NC(=O)Nc3ccc4c(c3)CCN4C)C(=O)N3CCC[C@H]3C(=O)N3CCCC[C@H]3C(=O)N[C@@H](C)C(=O)N2C1` [Compound 310, (S)-3-(3,5-difluorophenyl)-2-(3-(1-methylindolin-5-yl)ureido)-N-((2R,6S,8aS,14aS,20S,21S,23aS)-2,6,21-trimethyl-5,8,14,19,23-pentaoxooctadecahydro-1H,5H,14H,19H-pyrido[2,1-i]dipyrrolo[2,1-c:2′,1′-l][1]oxa[4,7,10,13]tetraazacyclo-hexadecin-20-yl)propanamide] ({NH(1-Me-indolin-5-yl)-CO}-[Phe(3,5-F2)][aThr]P[Pip]A[Pro(4R-Me)]; ester 2-C) the IC50 at 72 h [1, 6] was 0.4 ± 0.01 µM, the MIC ([5]; Enterococcus faecalis, ATCC33186, read-out: Minimal Inhibitory Concentrations E. faecalis ATCC 33186) was 0.313 µM (≈ 0.266 µg/mL) and the “Minimal Inhibitory Concentrations S. aureus USA 300 ΔClpP” value [2] was over 20 µM. The MIC [3] was 0.078 µM (≈ 0.0662 µg/mL).
For `C[C@@H]1C[C@H]2C(=O)OC[C@H](NC(=O)[C@H](Cc3ccccc3)NC(=O)Nc3ccc4c(c3)OCO4)C(=O)N3CCC[C@H]3C(=O)N3CCCC[C@H]3C(=O)N[C@@H](C)C(=O)N2C1` [Compound 194, (S)-2-(3-(benzo[d][1,3]dioxol-5-yl)ureido)-N-((2R,6S,8aS,14aS,20S,23aS)-2,6-dimethyl-5,8,14,19,23-pentaoxooctadecahydro-1H,5H,14H,19H-pyrido[2,1-i]dipyrrolo[2,1-c:2′,1′-l][1]oxa[4,7,10,13]tetraazacyclohexadecin-20-yl)-3-phenylpropanamide], the IC50 at 72 h [1] was over 100 µM and the MIC [4] was under 0.2 µM.
For `C[C@@H]1C[C@H]2C(=O)O[C@@H](C)[C@H](NC(=O)[C@H](Cc3cc(F)cc(F)c3)NC(=O)Nc3ccc(Cl)cc3F)C(=O)N3C[C@H](O)C[C@H]3C(=O)N3CCCC[C@H]3C(=O)N[C@@H](C)C(=O)N2C1` [Compound 329, (S)-2-(3-(4-chloro-2-fluorophenyl)ureido)-3-(3,5-difluorophenyl)-N-((2R,6S,8aS,14aS,16R,20S,21S,23aS)-16-hydroxy-2,6,21-trimethyl-5,8,14,19,23-pentaoxooctadecahydro-1H,5H,14H,19H-pyrido[2,1-i]dipyrrolo[2,1-c:2′,1′-l][1]oxa[4,7,10,13]tetraazacyclo-hexadecin-20-yl)propanamide] ({NH(4-Cl-2-F-phenyl)-CO}-[Phe(3,5-F2)][aThr][Hyp][Pip]A[Pro(4R-Me)]; ester 2-C), the IC50 at 72 h [1] was 24.5 ± 2.5 µM, the MIC [5, 7] was 0.039 µM (≈ 0.0336 µg/mL) and the “Minimal Inhibitory Concentrations S. aureus USA 300 ΔClpP” value [2] was 50 µM. For the same compound, the MIC [3] was 0.039 µM (≈ 0.0336 µg/mL).
